Like-named read-outs stand apart in the source and are kept apart here.
Key:
Ctenocephalides felis [1] = experiment: Ctenocephalides felis in vitro contact test with adult cat fleas; type: in vivo; details: application rate 5 μg/cm^2 (=500 g/ha); after 48 h; dead or moribund fleas
In short: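 Glass tubes were coated with compound in acetone (900 ppm solution gives 5 μg/cm²), dried, then loaded with 5–10 adult cat fleas. Held horizontal at room temperature and ambient humidity for 48 h. Efficacy is the % of fleas dead or moribund (motionless or uncoordinated after knock-down).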

Rhipicephalus sanguineus = Rhipicephalus sanguineus in vitro contact test with adult brown dog ticks; type: in vivo; details: application rate 5 μg/cm^2 (=500 g/ha); after 48 h; dead or moribund ticks
In short: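 Adult Rhipicephalus sanguineus (5-10 per tube) held in glass tubes coated with compound from acetone solution, 900 ppm giving 5 μg/cm^2, in the dark at room temperature. After 48 h ticks put on a 45-50° C hotplate up to 5 min; motionless or uncoordinated ticks scored dead/moribund as % efficacy.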

Boophilus microplus = Boophilus microplus injection test; type: in vivo; details: 20 μg/animal; assessed after 7 days
Experimental: (§1) • Solvent: dimethyl sulfoxide
1 μl of the active ingredient solution is injected into the abdomen of 5 engorged adult female cattle ticks (Boophilus microplus). The animals are transferred into dishes and kept in a climate-controlled room.

Ctenocephalides felis [2] = experiment: Ctenocephalides felis oral test; type: in vivo; details: 100 ppm in citrated cattle blood; after 2 days
Musca domestica = Musca domestica test; type: in vivo; details: 100 ppm; adult houseflies; after 2 days
Experimental: as §1
(§2) To produce a suitable active ingredient formulation, 10 mg of active ingredient are mixed with 0.5 ml of dimethyl sulfoxide, and the concentrate is diluted with water to the desired concentration.
Vessels containing a sponge treated with sugar solution and the active ingredient formulation of the desired concentration are populated with 10 adult houseflies (Musca domestica).

Spodoptera frugiperda = Spodoptera frugiperda spray test; type: in vivo; details: 100 g/ha, after 7 days; for pest or weed control at 100 g/ha: Spodoptera frugiperda, 168 h, read-out: efficacy
[3] = tested on: Anopheles gambiae strain RSPH (homozygot kdr); experiment: whole plant or invertebrate; type: in vivo; details: read-out: efficacy (mortality)
Experimental: (§3) • Solvent: acetone+2000 ppm rapeseed oil methyl ester (RME)
(§4) To produce a suitable active compound formulation, the active compound is dissolved in the solvent (2 mg/ml). The active compound formulation is pipetted onto a glazed tile and, after it has dried off, adult mosquitoes of the species Anopheles gambiae strain RSPH (homozygot kdr) are placed onto the treated tile. The exposure time is 30 minutes.

[4] = tested on: Anopheles funestus strain FUMOZ-R; experiment: whole plant or invertebrate; type: in vivo; details: read-out: efficacy (mortality)
Experimental: as §3
as §4, with “funestus” for “gambiae”, “FUMOZ-R (Hunt et al., Med Vet Entomol. 2005 September; 19 (3):271-5)” for “RSPH (homozygot kdr)”

[5] = tested on: Aedes aegypti strain MONHEIM; experiment: whole plant or invertebrate; type: in vivo; details: read-out: efficacy (mortality)
Experimental: as §3
as §4, with “Aedes aegypti” for “Anopheles gambiae”, “MONHEIM” for “RSPH (homozygot kdr)”

Phaedon cochleariae = Phaedon cochleariae spray test; details: for pest or weed control at 100 g/ha: Phaedon cochleariae, 168 h, read-out: efficacy; for efficacy: 100 g/ha, after 7 days
[6] = tested on: Amaranthus retroflexus (AMARE); experiment: Herbicidal activity, pre-emergence; type: in vivo; details: 1280 g/ha, 3 weeks
From the text: (§5) Seeds of monocotyledonous and dicotyledonous weed plants and crop plants were placed in wood-fibre pots in sandy loam and covered with soil. The compounds according to the invention, formulated as emulsion concentrates (EC), were then applied to the surface of the covering soil as an emulsion at a water application rate equating to 600 to 800 Uha with addition of 0.2% wetting agent.
(§6) After the treatment, the pots were placed in a greenhouse and kept under good growth conditions for the test plants. The damage to the test plants was scored visually after a test period of 3 weeks by comparison with untreated controls (herbicidal activity in percent (%): 100% activity=the plants have died, 0% activity=like control plants). Here, for example, compounds No. Ia-17, Ia-37, Ia-28 and Ia-56 at an application rate of 1280 g/ha each show 100% efficacy against Amaranthus retroflexus (AMARE) and with the exception of Ia-56, even against Viola tricolor (VIOTR). Furthermore, compounds no. Ia-17, Ia-37 and Ia-28 at the same application rate show an 80% or better efficacy against Matricaria inodorae (MATIN) and Ia-17 and Ia-37 even against Stellaria media (STEME).

Viola tricolor (VIOTR) = experiment: Herbicidal activity, pre-emergence; type: in vivo; details: 1280 g/ha, 3 weeks
From the text: as §5, §6

[7] = tested on: Abutilon theophrasti (ABUTH); experiment: Herbicidal activity, post-emergence; type: in vivo; details: 1280 g/ha, 3 weeks
Experimental: (§7) Seeds of monocotyledonous and dicotyledonous weeds and crop plants were placed in sandy loam in wood-fibre pots, covered with soil and cultivated in a greenhouse under good growth conditions. 2 to 3 weeks after sowing, the test plants are treated at the one-leaf stage. The compounds according to the invention, formulated as emulsion concentrates (EC), were then sprayed onto the green plant parts as an emulsion at a water application rate equating to 600 to 800 Uha with addition of 0.2% wetting agent. After the test plants have been left to stand in the greenhouse under optimal growth conditions for 3 weeks, the efficacy of the preparations was assessed visually in comparison to untreated controls (herbicidal efficacy in percent (%): 100% activity=the plants have died, 0% activity=like control plants). For example, compounds No. Ia-17, Ia-28 and Ia-37 at an application rate of 1280 g/ha each show at least 100% efficacy against Amaranthus retroflexus (AMARE) and Viola tricolor (VOTR).

[8] = tested on: Matricaria inodora (MATIN); experiment: Herbicidal activity, post-emergence; type: in vivo; details: 1280 g/ha, 3 weeks
Experimental: as §7

Stellaria meida (STEME) = experiment: Herbicidal activity, post-emergence; type: in vivo; details: 1280 g/ha, 3 weeks
Experimental: as §7

Amblyomma hebraeum = Amblyomma hebraeum test (tick nymphs, immersion); type: in vivo; details: 100 ppm; after 42 days
Experimental: as §1, §2
Tick nymphs (Amblyomma hebraeum) are placed into perforated plastic beakers and immersed in the desired concentration for one minute. The ticks are transferred on filter paper into a Petri dish and stored in a climate-controlled cabinet.

[9] = tested on: cattle ticks (Boophilus microplus) Parkhurst strain, SP-resistant; experiment: Boophilus microplus dip test; type: in vivo; details: 100 ppm; assessed after 7 days
In short: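 Engorged adult female ticks (8-10 per tube) fully immersed in compound from DMSO stock diluted with water to test concentration, then held in a climate-controlled room. Efficacy scored after 7 days from fertile egg laying, with eggs kept until hatching at about 42 days. 100% means no fertile eggs laid.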

Myzus persicae [10] = experiment: Myzus persicae spray test (Chinese cabbage leaf discs); type: in vivo; details: 100 g/ha; after 6 days
Experimental: (§8) After 6 days, the efficacy in % is determined.

Tetranychus urticae = Tetranychus urticae spray test, OP-resistant (bean leaf discs); type: in vivo; details: 100 g/ha; after 6 days
Experimental: as §8

Myzus persicae [11] = experiment: Myzus persicae spray test (bell pepper plants); type: in vivo; details: 4 ppm; after 6 days
Experimental: To produce further test concentrations, the latter is diluted with emulsifier-containing water. When addition of ammonium salts and/or penetrants is required, these are each added at a concentration of 1000 ppm to the preparation solution.
Bell pepper plants (Capsicum annuum), which are heavily infested by the green peach aphid (Myzus persicae), are treated by being sprayed with the active compound preparation at the desired concentration.
After 6 days, the kill in % is determined.

[12] = reversed-phase C18 HPLC column, logP, HPLC, C18, acetonitrile/water with formic acid (note a)

## CC(=O)NCc1cc(-c2cnn(-c3c(Cl)cc(C(F)(C(F)(F)F)C(F)(F)F)cc3Cl)c2)ccc1Cl [Ia-05, N-(2-chloro-5-{1-[2,6-dichloro-4-(1,1,1,2,3,3,3-heptafluoropropan-2-yl)phenyl]-1H-pyrazol-4-yl}benzyl)acetamide]
Ctenocephalides felis [1]
  efficacy: 100%
Rhipicephalus sanguineus
  efficacy: 100%
Boophilus microplus
  efficacy (laying of fertile eggs): 100%
Ctenocephalides felis [2]
  efficacy (rate of extermination): 100%
Musca domestica
  efficacy (rate of extermination): 100%
Spodoptera frugiperda
  pest or weed control at 100 g/ha: 100%
[3]
  mortality at 20 mg/m2: 90 to 100%
  mortality at 100 mg/m2: 90 to 100%
[4]
  mortality at 20 mg/m2: 90 to 100%
  mortality at 100 mg/m2: 90 to 100%
[5]
  mortality at 20 mg/m2: 90 to 100%
  mortality at 100 mg/m2: 90 to 100%
Phaedon cochleariae
  pest or weed control at 100 g/ha: 100%
[12]
  chromatographic logP: 4.13
reversed-phase C18 HPLC column, logP^a, HPLC-MS method a)
  chromatographic logP: 4.13

## CC(=O)NCc1cccc(-c2cnn(-c3c(Cl)cc(C(F)(C(F)(F)F)C(F)(F)F)cc3[S+](C)[O-])c2)c1 (stereo not shown) [Ia-17]
[6]
  herbicidal efficacy: 100%
Viola tricolor (VIOTR)
  herbicidal efficacy: 100%
[7]
  herbicidal efficacy: ≥ 80%
[8]
  herbicidal efficacy: ≥ 80%
Stellaria meida (STEME)
  herbicidal efficacy: ≥ 80%

## CC(=O)NCc1cc(-c2cnn(-c3c(C)cc(C(F)(C(F)(F)F)C(F)(F)F)cc3C)c2)ccc1F [Ia-13]
Ctenocephalides felis [1]
  efficacy: 100%
Rhipicephalus sanguineus
  efficacy: 100%
Amblyomma hebraeum
  efficacy (rate of extermination): 100%
[9]
  efficacy (laying of fertile eggs): 100%
Boophilus microplus
  efficacy (laying of fertile eggs): 100%
Ctenocephalides felis [2]
  efficacy (rate of extermination): 100%
Musca domestica
  efficacy (rate of extermination): 100%
Myzus persicae [10]
  efficacy: 100%
Spodoptera frugiperda
  efficacy: 100%
Tetranychus urticae
  efficacy: 100%
Phaedon cochleariae
  efficacy: 100%

## CCC(=O)NCc1cc(-c2cnn(-c3c(C)cc(C(F)(C(F)(F)F)C(F)(F)F)cc3C)c2)ccc1F [Ia-01]
Ctenocephalides felis [1]
  efficacy: 100%
Rhipicephalus sanguineus
  efficacy: 100%
Amblyomma hebraeum
  efficacy (rate of extermination): 100%
[9]
  efficacy (laying of fertile eggs): 100%
Boophilus microplus
  efficacy (laying of fertile eggs): 100%
Ctenocephalides felis [2]
  efficacy (rate of extermination): 100%
Musca domestica
  efficacy (rate of extermination): 100%
Myzus persicae [10]
  efficacy: 100%
Spodoptera frugiperda
  efficacy: 100%
Tetranychus urticae
  efficacy: 100%
Phaedon cochleariae
  efficacy: 100%

## CCC(=O)NCc1cccc(-c2cnn(-c3c(C)cc(C(F)(C(F)(F)F)C(F)(F)F)cc3C)c2)c1 [Ia-28]
Rhipicephalus sanguineus
  efficacy: 80%
[9]
  efficacy (laying of fertile eggs): 80%
Boophilus microplus
  efficacy (laying of fertile eggs): 100%
Ctenocephalides felis [2]
  efficacy (rate of extermination): 100%
Musca domestica
  efficacy (rate of extermination): 100%
Spodoptera frugiperda
  efficacy: 100%
Tetranychus urticae
  efficacy: 100%
[6]
  herbicidal efficacy: 100%
Viola tricolor (VIOTR)
  herbicidal efficacy: 100%
Phaedon cochleariae
  efficacy: 100%

## CC(=O)NCc1cc(-c2cnn(-c3c(C)cc(C(F)(C(F)(F)F)C(F)(F)F)cc3C)c2)ccc1Cl [Ia-95]
Ctenocephalides felis [1]
  efficacy: 100%
Rhipicephalus sanguineus
  efficacy: 80%
[9]
  efficacy (laying of fertile eggs): 100%
Boophilus microplus
  efficacy (laying of fertile eggs): 100%
Ctenocephalides felis [2]
  efficacy (rate of extermination): 100%
Musca domestica
  efficacy (rate of extermination): 100%
Spodoptera frugiperda
  efficacy: 100%
Tetranychus urticae
  efficacy: 100%
Myzus persicae [11]
  efficacy (kill): 85%
Phaedon cochleariae
  efficacy: 100%

## CC(=O)NCc1cccc(-c2cnn(-c3c(C)cc(C(F)(C(F)(F)F)C(F)(F)F)cc3C)c2)c1 [Ia-37]
Rhipicephalus sanguineus
  efficacy: 80%
Boophilus microplus
  efficacy (laying of fertile eggs): 100%
Ctenocephalides felis [2]
  efficacy (rate of extermination): 100%
Musca domestica
  efficacy (rate of extermination): 100%
Spodoptera frugiperda
  efficacy: 83%
Tetranychus urticae
  efficacy: 100%
[6]
  herbicidal efficacy: 100%
Viola tricolor (VIOTR)
  herbicidal efficacy: 100%
Phaedon cochleariae
  efficacy: 100%

## CC(=S)NCc1cc(-c2cnn(-c3c(Cl)cc(C(F)(C(F)(F)F)C(F)(F)F)cc3Cl)c2)ccc1Cl [Ia-162, N-(2-chloro-5-{1-[2,6-dichloro-4-(1,1,1,2,3,3,3-heptafluoropropan-2-yl)phenyl]-1H-pyrazol-4-yl}benzyl)ethanethioamide]
Ctenocephalides felis [1]
  efficacy: 100%
Rhipicephalus sanguineus
  efficacy: 100%
[9]
  efficacy (laying of fertile eggs): 80%
Boophilus microplus
  efficacy (laying of fertile eggs): 100%
Ctenocephalides felis [2]
  efficacy (rate of extermination): 100%
Musca domestica
  efficacy (rate of extermination): 100%
Spodoptera frugiperda
  pest or weed control at 100 g/ha: 100%
Tetranychus urticae
  efficacy: 100%
[3]
  mortality at 20 mg/m2: 90 to 100%
[4]
  mortality at 20 mg/m2: 90 to 100%
[5]
  mortality at 20 mg/m2: 90 to 100%
Phaedon cochleariae
  pest or weed control at 100 g/ha: 100%
[12]
  chromatographic logP: 4.98
reversed-phase C18 HPLC column, logP^a, HPLC-MS method a), reversed-phase column (C18)
  chromatographic logP: 4.98

Reference: patent publication US10357036B2, “Compounds for controlling arthropods” (priority 2015, dated 2019)
